Assay results from PubChem BioAssay AID2060344 (Molecular Pharmacology Branch, DTP, NCI, 2025).
Where “and” joins values, the source holds several entries; their conditions need not be identical. Equal values may be shown once.

Test system: SK-MEL-2 multi-cell spheroids, viability
Assay: Anticancer human tumor SK-MEL-2 cell line growth inhibition [TAK];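 also: spheroids exposed to drugs for seven days before readout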;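 as to viability, T/C: percent of DMSO vehicle control luminescence so 100% = untreated viability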
Conditions: for viability, T/C: stronger effect = lower value
Outline: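 Tumor cells were grown as spheroids with HUVEC and hMSC (60:25:15) and treated with targeted agents combined with TAK-243 or ipatasertib. Drugs were tested in half-log steps down from near the clinical Cmax, or from 10 microM where Cmax was unknown.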

[1] = curve of first compound, second compound 0.3 µM
[2] = curve of first compound, second compound 0.949 µM
[3] = curve of first compound, second compound 3 µM
[4] = curve of first compound, second compound 9.49 µM
[5] = curve of first compound, second compound 30 µM

`CC(=O)Nc1cccc(-n2c(=O)n(C3CC3)c(=O)c3c(Nc4ccc(I)cc4F)n(C)c(=O)c(C)c32)c1` + CC(C)NCC(C(=O)N1CCN(c2ncnc3c2C(C)CC3O)CC1)c1ccc(Cl)cc1 gave an IC50 [1] of 0.203 nM, an IC50 [2] of 0.15 nM and an IC50 [3] of under 0.0949 nM. For the same compound, the IC50 [4] was under 0.0949 nM, the IC50 [5] was under 0.0949 nM and the viability, T/C (second compound 0.3 µM, first compound 94.9 pM) was 78.9%. It also gave a viability, T/C (second compound 0.3 µM, first compound 0.0003 µM) of 35.2%, a viability, T/C (second compound 0.3 µM, first compound 0.000949 µM) of 10.4% and a viability, T/C (second compound 0.3 µM, first compound 0.003 µM) of 5.62%. The viability, T/C (second compound 0.3 µM, first compound 0.00949 µM) was 2.19%, the viability, T/C (second compound 0.3 µM, first compound 0.03 µM) was 1.65% and the viability, T/C (second compound 0.949 µM, first compound 94.9 pM) was 63.2%. For the same compound, the viability, T/C (second compound 0.949 µM, first compound 0.0003 µM) was 29.8%, the viability, T/C (second compound 0.949 µM, first compound 0.000949 µM) was 10.2% and the viability, T/C (second compound 0.949 µM, first compound 0.003 µM) was 3.49%. The viability, T/C (second compound 0.949 µM, first compound 0.00949 µM) was 1.83%, the viability, T/C (second compound 0.949 µM, first compound 0.03 µM) was 1.53% and the viability, T/C (second compound 3 µM, first compound 94.9 pM) was 47%. The viability, T/C (second compound 3 µM, first compound 0.0003 µM) was 21%, the viability, T/C (second compound 3 µM, first compound 0.000949 µM) was 3.96% and the viability, T/C (second compound 3 µM, first compound 0.003 µM) was 2.14%. For the same compound, the viability, T/C (second compound 3 µM, first compound 0.00949 µM) was 1.28%, the viability, T/C (second compound 3 µM, first compound 0.03 µM) was 0.92% and the viability, T/C (second compound 9.49 µM, first compound 94.9 pM) was 39%. The viability, T/C (second compound 9.49 µM, first compound 0.0003 µM) was 19.2%, the viability, T/C (second compound 9.49 µM, first compound 0.000949 µM) was 5.57% and the viability, T/C (second compound 9.49 µM, first compound 0.003 µM) was 1.46%. The viability, T/C (second compound 9.49 µM, first compound 0.00949 µM) was 1.58%, the viability, T/C (second compound 9.49 µM, first compound 0.03 µM) was 0.65% and the viability, T/C (second compound 30 µM, first compound 94.9 pM) was 39.5%. It also gave a viability, T/C (second compound 30 µM, first compound 0.0003 µM) of 17.5%, a viability, T/C (second compound 30 µM, first compound 0.000949 µM) of 3.27% and a viability, T/C (second compound 30 µM, first compound 0.003 µM) of 1.19%. The viability, T/C (second compound 30 µM, first compound 0.00949 µM) was 0.56% and the viability, T/C (second compound 30 µM, first compound 0.03 µM) was 1.06%.

`COc1c(OCCCN2CCOCC2)ccc2c3n(c(=NC(=O)c4cnc(N)nc4)nc12)CCN3` + CC(C)NCC(C(=O)N1CCN(c2ncnc3c2C(C)CC3O)CC1)c1ccc(Cl)cc1 gave an IC50 [1] of 51.3 nM, an IC50 [2] of 29.4 nM and an IC50 [3] of 20.8 nM. For the same compound, the IC50 [4] was 14.5 nM, the IC50 [5] was 9.89 nM and the viability, T/C (second compound 0.3 µM, first compound 0.00316 µM) was 92%. The viability, T/C (second compound 0.3 µM, first compound 0.01 µM) was 72.5%, the viability, T/C (second compound 0.3 µM, first compound 0.0316 µM) was 50.6% and the viability, T/C (second compound 0.3 µM, first compound 0.1 µM) was 45.6%. For the same compound, the viability, T/C (second compound 0.3 µM, first compound 0.316 µM) was 30.9%, the viability, T/C (second compound 0.3 µM, first compound 1 µM) was 19.5% and the viability, T/C (second compound 0.949 µM, first compound 0.00316 µM) was 81%. It also gave a viability, T/C (second compound 0.949 µM, first compound 0.01 µM) of 65%, a viability, T/C (second compound 0.949 µM, first compound 0.0316 µM) of 47.1% and a viability, T/C (second compound 0.949 µM, first compound 0.1 µM) of 38.4%. The viability, T/C (second compound 0.949 µM, first compound 0.316 µM) was 27.6%, the viability, T/C (second compound 0.949 µM, first compound 1 µM) was 21% and the viability, T/C (second compound 3 µM, first compound 0.00316 µM) was 68.5%. It also gave a viability, T/C (second compound 3 µM, first compound 0.01 µM) of 62.9%, a viability, T/C (second compound 3 µM, first compound 0.0316 µM) of 40.2% and a viability, T/C (second compound 3 µM, first compound 0.1 µM) of 34.2%. It also gave a viability, T/C (second compound 3 µM, first compound 0.316 µM) of 26.1%, a viability, T/C (second compound 3 µM, first compound 1 µM) of 19.5% and a viability, T/C (second compound 9.49 µM, first compound 0.00316 µM) of 59.8%. The viability, T/C (second compound 9.49 µM, first compound 0.01 µM) was 57.6%, the viability, T/C (second compound 9.49 µM, first compound 0.0316 µM) was 37% and the viability, T/C (second compound 9.49 µM, first compound 0.1 µM) was 31.4%. For the same compound, the viability, T/C (second compound 9.49 µM, first compound 0.316 µM) was 24.6%, the viability, T/C (second compound 9.49 µM, first compound 1 µM) was 21.1% and the viability, T/C (second compound 30 µM, first compound 0.00316 µM) was 52.5%. For the same compound, the viability, T/C (second compound 30 µM, first compound 0.01 µM) was 50.8%, the viability, T/C (second compound 30 µM, first compound 0.0316 µM) was 41.6% and the viability, T/C (second compound 30 µM, first compound 0.1 µM) was 28.8%. It also gave a viability, T/C (second compound 30 µM, first compound 0.316 µM) of 21.1% and a viability, T/C (second compound 30 µM, first compound 1 µM) of 16.3%.

In the case of `CC(C)(C)c1nc(-c2cccc(NS(=O)(=O)c3c(F)cccc3F)c2F)c(-c2ccnc(N)n2)s1`, the viability, T/C (compound 0.0316 µM) is reported as 137% and 126%, the viability, T/C (compound 0.1 µM) is reported as 126% and 122% and the viability, T/C (compound 0.316 µM) is reported as 82.3% and 76.3%. For the same compound, the viability, T/C (compound 1 µM) was 28.8% and 32%, the viability, T/C (compound 3.16 µM) was 13.3% and 16.8% and the viability, T/C (compound 10 µM) was 18.9% and 22.2%. The IC50 (curve of compound) was 631 nM and 615 nM.

With `CCCS(=O)(=O)Nc1ccc(F)c(C(=O)c2c[nH]c3ncc(-c4ccc(Cl)cc4)cc23)c1F` the viability, T/C (compound 0.316 µM) was 105% and 130%, the viability, T/C (compound 1 µM) was 102% and 129% and the viability, T/C (compound 3.16 µM) was 103% and 113%. The viability, T/C (compound 10 µM) was 83% and 41.8%, the viability, T/C (compound 31.6 µM) was 117% and 58.2% and the viability, T/C (compound 100 µM) was 106% and 71.2%. For the same compound, the IC50 (curve of compound) was over 100000 nM.
